ChEMBL document CHEMBL1177794, “Broad spectrum alkynyl inhibitors of T315I Bcr-Abl” (Bioorg Med Chem Lett, 2010)

What was measured:
[1] = target: Dual specificity tyrosine-phosphorylation-regulated kinase 1B (Homo sapiens) (UniProt Q9Y463); test: Inhibition of DYRK1B at 10 uM; conditions: values are per cent of control
[2] = target: SNF-related serine/threonine-protein kinase (Homo sapiens) (UniProt Q9NRH2); test: Inhibition of SNRK at 10 uM
[3] = target: Calcium/calmodulin-dependent protein kinase kinase 1 (Homo sapiens) (UniProt Q8N5S9); test: Inhibition of CAMKK1 at 10 uM; conditions: values are per cent of control
[4] = target: Discoidin domain-containing receptor 2 (Homo sapiens) (UniProt Q16832); test: Inhibition of DDR2 at 10 uM; conditions: values are per cent of control
[5] = target: Dual specificity protein kinase TTK (Homo sapiens) (UniProt P33981); test: Inhibition of TTK at 10 uM; conditions: values are per cent of control
[6] = target: Serine/threonine-protein kinase D2 (Homo sapiens) (UniProt Q9BZL6); test: Inhibition of PRKD2 at 10 uM
[7] = test system: Leucine-rich repeat serine/threonine-protein kinase 2 (Homo sapiens), Q5S007 [G2019S]; test: Inhibition of LRRK2 G2019S mutant at 10 uM; conditions: values are per cent of control
[8] = target: Ribosomal protein S6 kinase alpha-1 (Homo sapiens) (UniProt Q15418); test: Inhibition of RSK1 C-terminal domain2 at 10 uM
[9] = target: Dual specificity protein kinase CLK4 (Homo sapiens) (UniProt Q9HAZ1); test: Inhibition of CLK4 at 10 uM; conditions: values are per cent of control
[10] = target: Ribosomal protein S6 kinase alpha-2 (Homo sapiens) (UniProt Q15349); test: Inhibition of RSK3 C-terminal domain2 at 10 uM
[11] = target: Serine/threonine-protein kinase STK11 (Homo sapiens) (UniProt Q15831); test: Inhibition of LKB1 at 10 uM; conditions: values are per cent of control
[12] = target: Membrane-associated tyrosine- and threonine-specific cdc2-inhibitory kinase (Homo sapiens) (UniProt Q99640); test: Inhibition of PKMYT1 at 10 uM
[13] = target: Serine/threonine-protein kinase pim-1 (Homo sapiens) (UniProt P11309); test: Inhibition of PIM1 at 10 uM
[14] = test system: Tyrosine-protein kinase ABL1 (Homo sapiens), P00519 [F317I]; test: Inhibition of non phosphorylated ABL1 F317I mutant at 10 uM; conditions: values are per cent of control
[15] = target: Serine/threonine-protein kinase PAK 2 (Homo sapiens) (UniProt Q13177); test: Inhibition of PAK2 at 10 uM
[16] = target: Rho-associated protein kinase 2 (Homo sapiens) (UniProt O75116); test: Inhibition of ROCK2 at 10 uM
[17] = target: Cyclin-dependent kinase 7 (Homo sapiens) (UniProt P50613); test: Inhibition of CDK7 at 10 uM; values are per cent of control
[18] = target: Wee1-like protein kinase 2 (Homo sapiens) (UniProt P0C1S8); test: Inhibition of WEE2 at 10 uM; conditions: values are per cent of control
[19] = test system: Epidermal growth factor receptor (Homo sapiens), P00533 [L861Q]; test: Inhibition of EGFR L861Q mutant at 10 uM; values are per cent of control
[20] = target: MAP/microtubule affinity-regulating kinase 3 (Homo sapiens) (UniProt P27448); test: Inhibition of MARK3 at 10 uM; conditions: values are per cent of control
[21] = target: Receptor-interacting serine/threonine-protein kinase 1 (Homo sapiens) (UniProt Q13546); test: Inhibition of RIPK1 at 10 uM; conditions: values are per cent of control
[22] = target: Dual specificity protein kinase CLK2 (Homo sapiens) (UniProt P49760); test: Inhibition of CLK2 at 10 uM; conditions: values are per cent of control
[23] = target: cGMP-dependent protein kinase 2 (Homo sapiens) (UniProt Q13237); test: Inhibition of PRKG2 at 10 uM
[24] = target: Serine/threonine-protein kinase 10 (Homo sapiens) (UniProt O94804); test: Inhibition of LOK at 10 uM; values are per cent of control
[25] = target: Serine/threonine-protein kinase 4 (Homo sapiens) (UniProt Q13043); test: Inhibition of MST1 at 10 uM
[26] = target: Cyclin-dependent kinase-like 2 (Homo sapiens) (UniProt Q92772); test: Inhibition of CDKL2 at 10 uM; conditions: values are per cent of control

Sequence of Receptor-interacting serine/threonine-protein kinase 1 (Homo sapiens) (Q13546 whole entry): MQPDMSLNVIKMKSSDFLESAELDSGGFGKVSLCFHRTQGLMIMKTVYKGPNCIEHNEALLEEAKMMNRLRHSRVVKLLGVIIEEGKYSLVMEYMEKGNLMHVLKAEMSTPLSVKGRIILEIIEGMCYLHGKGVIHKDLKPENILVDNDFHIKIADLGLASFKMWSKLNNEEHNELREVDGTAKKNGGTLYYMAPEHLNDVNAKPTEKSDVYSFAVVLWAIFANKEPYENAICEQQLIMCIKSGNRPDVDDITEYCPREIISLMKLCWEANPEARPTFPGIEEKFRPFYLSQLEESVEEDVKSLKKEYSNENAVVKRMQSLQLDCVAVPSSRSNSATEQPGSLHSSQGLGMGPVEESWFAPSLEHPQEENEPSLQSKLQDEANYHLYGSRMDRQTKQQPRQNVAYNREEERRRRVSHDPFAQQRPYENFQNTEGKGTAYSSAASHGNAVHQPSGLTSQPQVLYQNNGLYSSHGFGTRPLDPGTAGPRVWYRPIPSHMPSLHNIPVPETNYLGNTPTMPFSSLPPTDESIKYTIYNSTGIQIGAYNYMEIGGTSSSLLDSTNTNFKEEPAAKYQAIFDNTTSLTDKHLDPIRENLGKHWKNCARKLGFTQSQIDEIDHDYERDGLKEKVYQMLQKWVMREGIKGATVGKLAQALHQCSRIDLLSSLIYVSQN
Sequence of Serine/threonine-protein kinase PAK 2 (Homo sapiens) (Q13177 whole entry): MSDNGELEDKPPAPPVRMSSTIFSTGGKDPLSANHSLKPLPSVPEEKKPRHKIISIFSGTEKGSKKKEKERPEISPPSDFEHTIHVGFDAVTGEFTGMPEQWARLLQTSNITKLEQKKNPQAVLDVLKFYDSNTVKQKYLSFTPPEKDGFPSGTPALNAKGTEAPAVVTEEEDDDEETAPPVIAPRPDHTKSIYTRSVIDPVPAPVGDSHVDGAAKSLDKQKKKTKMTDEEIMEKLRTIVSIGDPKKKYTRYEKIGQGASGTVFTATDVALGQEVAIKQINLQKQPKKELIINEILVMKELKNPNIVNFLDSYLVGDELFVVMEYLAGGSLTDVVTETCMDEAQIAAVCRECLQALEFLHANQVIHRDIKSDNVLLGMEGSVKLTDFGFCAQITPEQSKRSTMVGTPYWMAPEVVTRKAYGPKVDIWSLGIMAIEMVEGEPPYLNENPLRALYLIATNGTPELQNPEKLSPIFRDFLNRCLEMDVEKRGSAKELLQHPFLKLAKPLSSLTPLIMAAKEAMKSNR
Sequence of Leucine-rich repeat serine/threonine-protein kinase 2 (Homo sapiens), Q5S007 [G2019S] (Q5S007 whole entry G2019S, the tested form may be a part): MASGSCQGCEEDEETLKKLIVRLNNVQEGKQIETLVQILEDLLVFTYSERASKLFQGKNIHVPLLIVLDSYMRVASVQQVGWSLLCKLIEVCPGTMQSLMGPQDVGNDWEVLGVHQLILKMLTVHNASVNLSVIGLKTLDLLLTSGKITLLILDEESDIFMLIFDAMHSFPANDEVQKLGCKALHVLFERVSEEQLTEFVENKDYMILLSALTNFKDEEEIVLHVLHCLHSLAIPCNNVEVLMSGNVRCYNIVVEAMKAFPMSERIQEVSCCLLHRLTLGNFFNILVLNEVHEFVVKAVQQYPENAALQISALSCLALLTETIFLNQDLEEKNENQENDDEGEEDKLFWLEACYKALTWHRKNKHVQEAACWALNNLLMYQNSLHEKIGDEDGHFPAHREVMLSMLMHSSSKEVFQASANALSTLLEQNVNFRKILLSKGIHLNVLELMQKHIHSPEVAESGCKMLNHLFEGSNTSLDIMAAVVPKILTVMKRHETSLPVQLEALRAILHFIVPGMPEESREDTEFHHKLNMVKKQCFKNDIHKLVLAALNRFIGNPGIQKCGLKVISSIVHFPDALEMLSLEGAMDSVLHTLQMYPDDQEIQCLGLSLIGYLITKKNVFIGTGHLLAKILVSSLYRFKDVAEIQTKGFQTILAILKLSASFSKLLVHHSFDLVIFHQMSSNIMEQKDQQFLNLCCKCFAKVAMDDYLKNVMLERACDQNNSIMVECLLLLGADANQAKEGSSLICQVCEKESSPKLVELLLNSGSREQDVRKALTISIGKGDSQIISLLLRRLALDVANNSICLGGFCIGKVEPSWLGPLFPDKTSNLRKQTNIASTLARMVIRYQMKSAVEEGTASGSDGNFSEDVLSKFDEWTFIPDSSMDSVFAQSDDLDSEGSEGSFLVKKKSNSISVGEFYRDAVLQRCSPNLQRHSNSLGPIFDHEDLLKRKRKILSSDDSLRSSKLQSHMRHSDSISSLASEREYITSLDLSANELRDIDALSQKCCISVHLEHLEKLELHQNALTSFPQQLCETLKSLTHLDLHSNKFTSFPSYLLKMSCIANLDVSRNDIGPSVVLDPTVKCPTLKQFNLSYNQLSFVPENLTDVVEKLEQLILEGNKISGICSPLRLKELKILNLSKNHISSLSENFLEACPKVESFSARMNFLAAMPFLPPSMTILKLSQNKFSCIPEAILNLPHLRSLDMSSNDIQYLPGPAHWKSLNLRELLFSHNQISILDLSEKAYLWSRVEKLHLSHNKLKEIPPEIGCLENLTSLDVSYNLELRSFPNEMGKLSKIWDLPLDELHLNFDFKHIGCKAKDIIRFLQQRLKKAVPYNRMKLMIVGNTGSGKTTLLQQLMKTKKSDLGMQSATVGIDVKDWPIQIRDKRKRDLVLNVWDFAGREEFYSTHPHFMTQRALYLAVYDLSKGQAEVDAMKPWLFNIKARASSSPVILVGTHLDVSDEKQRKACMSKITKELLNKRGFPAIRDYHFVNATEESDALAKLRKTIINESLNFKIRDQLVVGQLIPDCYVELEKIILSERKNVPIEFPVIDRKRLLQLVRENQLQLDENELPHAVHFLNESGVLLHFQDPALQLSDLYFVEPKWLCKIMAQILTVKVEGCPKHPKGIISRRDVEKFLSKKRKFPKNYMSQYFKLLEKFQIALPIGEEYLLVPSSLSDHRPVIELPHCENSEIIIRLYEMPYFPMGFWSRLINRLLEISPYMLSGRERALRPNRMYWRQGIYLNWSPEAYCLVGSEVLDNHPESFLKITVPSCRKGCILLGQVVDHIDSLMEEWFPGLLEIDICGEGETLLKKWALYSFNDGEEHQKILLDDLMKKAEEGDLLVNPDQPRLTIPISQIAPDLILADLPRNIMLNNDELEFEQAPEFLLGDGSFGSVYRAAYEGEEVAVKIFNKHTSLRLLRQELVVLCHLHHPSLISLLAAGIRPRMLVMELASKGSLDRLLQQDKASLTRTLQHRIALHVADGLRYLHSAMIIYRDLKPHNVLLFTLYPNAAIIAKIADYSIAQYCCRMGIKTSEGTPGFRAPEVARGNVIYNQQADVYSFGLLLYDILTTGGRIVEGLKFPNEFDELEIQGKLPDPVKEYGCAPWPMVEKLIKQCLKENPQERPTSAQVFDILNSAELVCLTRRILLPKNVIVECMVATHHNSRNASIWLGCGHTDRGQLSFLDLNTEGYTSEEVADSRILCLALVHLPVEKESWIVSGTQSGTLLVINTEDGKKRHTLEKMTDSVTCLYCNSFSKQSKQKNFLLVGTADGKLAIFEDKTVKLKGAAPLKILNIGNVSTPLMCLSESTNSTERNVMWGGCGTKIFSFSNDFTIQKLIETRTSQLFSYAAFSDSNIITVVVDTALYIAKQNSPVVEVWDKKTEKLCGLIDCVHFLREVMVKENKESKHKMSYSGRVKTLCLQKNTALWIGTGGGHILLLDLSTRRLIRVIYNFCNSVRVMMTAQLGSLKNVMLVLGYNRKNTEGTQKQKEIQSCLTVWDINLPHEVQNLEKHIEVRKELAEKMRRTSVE
Sequence of Ribosomal protein S6 kinase alpha-2 (Homo sapiens) (Q15349 whole entry, the tested form may be a part): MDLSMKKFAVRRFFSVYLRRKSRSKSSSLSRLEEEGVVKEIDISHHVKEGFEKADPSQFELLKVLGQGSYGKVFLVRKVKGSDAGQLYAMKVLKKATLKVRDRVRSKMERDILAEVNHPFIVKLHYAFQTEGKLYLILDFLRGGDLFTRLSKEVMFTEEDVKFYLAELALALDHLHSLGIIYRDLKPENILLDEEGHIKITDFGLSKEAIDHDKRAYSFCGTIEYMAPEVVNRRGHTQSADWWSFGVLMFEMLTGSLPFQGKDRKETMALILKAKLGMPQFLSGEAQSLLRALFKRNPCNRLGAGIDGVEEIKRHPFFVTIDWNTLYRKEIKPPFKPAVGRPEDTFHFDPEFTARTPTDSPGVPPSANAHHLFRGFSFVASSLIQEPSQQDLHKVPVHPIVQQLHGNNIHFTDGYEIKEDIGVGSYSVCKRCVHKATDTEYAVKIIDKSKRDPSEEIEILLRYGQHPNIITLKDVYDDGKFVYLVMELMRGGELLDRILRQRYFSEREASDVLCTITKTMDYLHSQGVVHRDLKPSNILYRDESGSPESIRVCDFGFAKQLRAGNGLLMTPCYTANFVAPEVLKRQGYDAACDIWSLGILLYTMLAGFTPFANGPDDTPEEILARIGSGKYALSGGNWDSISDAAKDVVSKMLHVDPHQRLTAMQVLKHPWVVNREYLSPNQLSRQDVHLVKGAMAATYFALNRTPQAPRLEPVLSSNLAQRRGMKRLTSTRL
Sequence of Dual specificity protein kinase CLK2 (Homo sapiens) (P49760 whole entry, looked up): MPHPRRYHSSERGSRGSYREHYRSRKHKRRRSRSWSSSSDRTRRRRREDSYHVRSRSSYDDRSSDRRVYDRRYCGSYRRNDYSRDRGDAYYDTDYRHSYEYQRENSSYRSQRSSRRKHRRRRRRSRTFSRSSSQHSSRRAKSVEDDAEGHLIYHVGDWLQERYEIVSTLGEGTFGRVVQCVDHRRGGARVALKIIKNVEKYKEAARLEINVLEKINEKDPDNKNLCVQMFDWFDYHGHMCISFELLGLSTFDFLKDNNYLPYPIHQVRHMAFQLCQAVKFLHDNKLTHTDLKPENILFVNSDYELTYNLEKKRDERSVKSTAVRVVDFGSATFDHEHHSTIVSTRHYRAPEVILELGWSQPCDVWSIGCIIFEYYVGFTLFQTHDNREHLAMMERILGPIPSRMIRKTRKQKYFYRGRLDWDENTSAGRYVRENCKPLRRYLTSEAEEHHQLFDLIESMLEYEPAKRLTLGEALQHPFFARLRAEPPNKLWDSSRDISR

Structure (SMILES): CCN1CCN(Cc2ccc(NC(=O)c3ccc(C)c(C#Cc4cnc5[nH]ccc5c4)c3)cc2C(F)(F)F)CC1
- residual binding, % of control [1]: 15%
- inhibition [2]: 60%
- residual binding, % of control [3]: 69%
- residual binding, % of control [4]: 2.8%
- residual binding, % of control [5]: 2%
- inhibition [6]: 13%
- residual binding, % of control [7]: 8.8%
- inhibition [8]: 17%
- residual binding, % of control [9]: 32%
- inhibition [10]: 87%
- residual binding, % of control [11]: 60%
- inhibition [12]: 48%
- inhibition [13]: 100%
- residual binding, % of control [14]: 8.8%
- inhibition [15]: 76%
- inhibition [16]: 18%
- level, % of control [17]: 4%
- residual binding, % of control [18]: 20%
- level, % of control [19]: 0%
- residual binding, % of control [20]: 42%
- residual binding, % of control [21]: 0%
- residual binding, % of control [22]: 100%
- inhibition [23]: 77%
- level, % of control [24]: 0%
- inhibition [25]: 12%
- residual binding, % of control [26]: 4.8%

Structure (SMILES): CCN1CCN(Cc2ccc(NC(=O)c3ccc(C)c(C#Cc4cccnc4)c3)cc2C(F)(F)F)CC1
- residual binding, % of control [1]: 47%
- inhibition [2]: 34%
- residual binding, % of control [3]: 53%
- residual binding, % of control [4]: 1%
- residual binding, % of control [5]: 16%
- inhibition [6]: 56%
- residual binding, % of control [7]: 7.5%
- inhibition [8]: 7.2%
- residual binding, % of control [9]: 15%
- inhibition [10]: 30%
- residual binding, % of control [11]: 96%
- inhibition [12]: 85%
- inhibition [13]: 84%
- residual binding, % of control [14]: 8.8%
- inhibition [15]: 84%
- inhibition [16]: 19%
- level, % of control [17]: 1.6%
- residual binding, % of control [18]: 100%
- level, % of control [19]: 0.2%
- residual binding, % of control [20]: 69%
- residual binding, % of control [21]: 0.05%
- residual binding, % of control [22]: 88%
- inhibition [23]: 97%
- level, % of control [24]: 0%
- inhibition [25]: 23%
- residual binding, % of control [26]: 1.4%
